Target: HSD17B13 (Homo sapiens (Human), UniProt Q7Z5P4)
Assay: HSD17B13 enzymatic inhibition assay (150 nM or 50 nM HSD17B13)
Format: biochemical
Conditions: 50 nM HSD17B13; read-out: Inhibition of 50 nM of HSD17B13 IC50

Chain of HSD17B13 (Q7Z5P4 other isoform, or with tags, fused parts or gaps): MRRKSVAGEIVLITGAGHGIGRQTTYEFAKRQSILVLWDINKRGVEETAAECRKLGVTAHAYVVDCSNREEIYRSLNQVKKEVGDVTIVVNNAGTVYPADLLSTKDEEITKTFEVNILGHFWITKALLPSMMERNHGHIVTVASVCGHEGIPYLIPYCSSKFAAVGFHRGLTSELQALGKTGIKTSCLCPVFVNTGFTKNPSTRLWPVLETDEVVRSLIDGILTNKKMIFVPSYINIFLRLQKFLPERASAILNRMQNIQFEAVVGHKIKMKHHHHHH

| Compound | IC50 [nM] |
| --- | --- |
| CSc1ccc(C(NC(=O)c2ccc(C(F)(F)F)[nH]c2=O)c2ccc(C)cc2)cc1 (stereo not shown) [Compound 448, N-((4-(methylthio)phenyl)(p-tolyl)methyl)-2-oxo-6-(trifluoromethyl)-1,2-dihydropyridine-3-carboxamide] | 140 |
| COc1cc(C)ccc1C(NC(=O)c1ccc(C(F)(F)F)[nH]c1=O)c1ccccc1 (stereo not shown) [Compound 449, N-((2-methoxy-4-methylphenyl)(phenyl)methyl)-2-oxo-6-(trifluoromethyl)-1,2-dihydropyridine-3-carboxamide] | 970 |
| Cc1ccc(C(NC(=O)c2ccc(C(F)(F)F)[nH]c2=O)c2ccccc2S(C)(=O)=O)cc1 (stereo not shown) [Compound 450, N-((2-(methylsulfonyl)phenyl)(p-tolyl)methyl)-2-oxo-6-(trifluoromethyl)-1,2-dihydropyridine-3-carboxamide] | 1100 |
| COc1c(C)cccc1C(NC(=O)c1ccc(C(F)(F)F)[nH]c1=O)c1ccccc1 (stereo not shown) [Compound 451, N-((2-methoxy-3-methylphenyl)(phenyl)methyl)-2-oxo-6-(trifluoromethyl)-1,2-dihydropyridine-3-carboxamide] | 1960 |
| Cc1cccc(C(NC(=O)c2ccc(C(F)(F)F)[nH]c2=O)c2ccccc2S(C)(=O)=O)c1 (stereo not shown) [Compound 452, N-((2-(methylsulfonyl)phenyl)(m-tolyl)methyl)-2-oxo-6-(trifluoromethyl)-1,2-dihydropyridine-3-carboxamide] | 7030 |
| Cc1cccc(C(NC(=O)c2ccc(C(F)(F)F)[nH]c2=O)c2ccccc2)c1S(C)(=O)=O (stereo not shown) [Compound 453, N-((3-methyl-2-(methylsulfonyl)phenyl) (phenyl)methyl)-2-oxo-6-(trifluoromethyl)-1,2-dihydropyridine-3-carboxamide] | 3230 |
| CCc1cccc(C(NC(=O)c2ccc(C(F)(F)F)[nH]c2=O)c2ccccc2OC)c1 (stereo not shown) [Compound 454, N-((3-ethylphenyl)(2-methoxyphenyl)methyl)-2-oxo-6-(trifluoromethyl)-1,2-dihydropyridine-3-carboxamide] | 1810 |
| CCc1cccc(C(NC(=O)c2ccc(C(F)(F)F)[nH]c2=O)c2ccccc2SC)c1 (stereo not shown) [Compound 455, N-((3-ethylphenyl)(2-(methylthio)phenyl)methyl)-2-oxo-6-(trifluoromethyl)-1,2-dihydropyridine-3-carboxamide] | 870 |
| CCc1cccc(C(NC(=O)c2ccc(C(F)(F)F)[nH]c2=O)c2ccccc2S(C)(=O)=O)c1 (stereo not shown) [Compound 456, N-((3-ethylphenyl)(2-(methylsulfonyl)phenyl)methyl)-2-oxo-6-(trifluoromethyl)-1,2-dihydropyridine-3-carboxamide] | 4830 |
| CCCc1ccc2c(c1)C(NC(=O)c1ccc(C(F)(F)F)[nH]c1=O)c1ccccc1O2 (stereo not shown) [Compound 457, 2-oxo-N-(2-propyl-9H-xanthen-9-yl)-6-(trifluoromethyl)-1,2-dihydropyridine-3-carboxamide] | 120 |
| CCCc1ccc2c(c1)C(NC(=O)c1ccc(C(F)(F)F)[nH]c1=O)c1ccccc1S2 (stereo not shown) [Compound 458, 2-oxo-N-(2-propyl-9H-thioxanthen-9-yl)-6-(trifluoromethyl)-1,2-dihydropyridine-3-carboxamide] | 520 |
| Cc1ccc2c(c1)Oc1cc(C)ccc1C2NC(=O)c1ccc(-c2ccccc2)[nH]c1=O [Compound 459, N-(3,6-dimethyl-9H-xanthen-9-yl)-2-oxo-6-phenyl-1,2-dihydropyridine-3-carboxamide] | > 10000 |
| Cc1ccc2c(c1)S(=O)(=O)c1cc(C)ccc1C2NC(=O)c1cc(CO)c(C(F)(F)F)[nH]c1=O [Compound 462, N-(3,6-dimethyl-10,10-dioxido-9H-thioxanthen-9-yl)-5-(hydroxymethyl)-2-oxo-6-(trifluoromethyl)-1,2-dihydropyridine-3-carboxamide] | 140 |
| Cc1ccc2c(c1)Sc1cc(C)ccc1C2NC(=O)c1cc(CO)c(C(F)(F)F)[nH]c1=O [Compound 463, N-(3,6-dimethyl-9H-thioxanthen-9-yl)-5-(hydroxymethyl)-2-oxo-6-(trifluoromethyl)-1,2-dihydropyridine-3-carboxamide] | 50 |

Now from value to compound:

| IC50 [nM] | Compound |
| --- | --- |
| 10 | Cc1ccc2c(c1)Oc1cc(C)ccc1C2NC(=O)c1cc(CO)c(C(F)(F)F)[nH]c1=O [Compound 464, N-(3,6-dimethyl-9H-xanthen-9-yl)-5-(hydroxymethyl)-2-oxo-6-(trifluoromethyl)-1,2-dihydropyridine-3-carboxamide] |
| 610 | CCCc1cccc(C(NC(=O)c2ccc(C(F)(F)F)[nH]c2=O)c2ccccc2)c1 (stereo not shown) [Compound 465, 2-oxo-N-(phenyl(3-propylphenyl)methyl)-6-(trifluoromethyl)-1,2-dihydropyridine-3-carboxamide] |
| 600 | CCc1cccc(C(NC(=O)c2ccc(C(F)(F)F)[nH]c2=O)c2ccccc2)c1 (stereo not shown) [Compound 466, N-((3-ethylphenyl)(phenyl)methyl)-2-oxo-6-(trifluoromethyl)-1,2-dihydropyridine-3-carboxamide] |
| 990 | C=Cc1cccc(C(NC(=O)c2ccc(C(F)(F)F)[nH]c2=O)c2ccccc2)c1 (stereo not shown) [Compound 467, 2-oxo-N-(phenyl(3-vinylphenyl)methyl)-6-(trifluoromethyl)-1,2-dihydropyridine-3-carboxamide] |
| 190 | CCc1ccc2c(c1)C(NC(=O)c1ccc(C(F)(F)F)[nH]c1=O)c1ccccc1S2(=O)=O (stereo not shown) [Compound 468, N-(2-ethyl-10,10-dioxido-9H-thioxanthen-9-yl)-2-oxo-6-(trifluoromethyl)-1,2-dihydropyridine-3-carboxamide] |
| 310 | CCCc1ccc2c(c1)C(NC(=O)c1ccc(C(F)(F)F)[nH]c1=O)c1ccccc1S2(=O)=O (stereo not shown) [Compound 469, N-(10,10-dioxido-2-propyl-9H-thioxanthen-9-yl)-2-oxo-6-(trifluoromethyl)-1,2-dihydropyridine-3-carboxamide] |
| 420 | Cc1ccc2c(c1)C(NC(=O)c1ccc(C(F)(F)F)[nH]c1=O)c1ccccc1S2(=O)=O (stereo not shown) [Compound 470, N-(2-methyl-10,10-dioxido-9H-thioxanthen-9-yl)-2-oxo-6-(trifluoromethyl)-1,2-dihydropyridine-3-carboxamide] |
| 280 | C=CCc1ccc2c(c1)C(NC(=O)c1ccc(C(F)(F)F)[nH]c1=O)c1ccccc1O2 (stereo not shown) [Compound 471, N-(2-allyl-9H-xanthen-9-yl)-2-oxo-6-(trifluoromethyl)-1,2-dihydropyridine-3-carboxamide] |
| 480 | O=C(NC1c2ccccc2S(=O)(=O)c2ccc(CC(F)(F)F)cc21)c1ccc(C(F)(F)F)[nH]c1=O (stereo not shown) [Compound 472, N-(10,10-dioxido-2-(2,2,2-trifluoroethyl)-9H-thioxanthen-9-yl)-2-oxo-6-(trifluoromethyl)-1,2-dihydropyridine-3-carboxamide] |
| 30 | Cc1ccc2c(c1)S(=O)(=O)c1cc(C)ccc1C2NC(=O)c1cc(Br)c(C(F)(F)F)[nH]c1=O [Compound 473, 5-bromo-N-(3,6-dimethyl-10,10-dioxido-9H-thioxanthen-9-yl)-2-oxo-6-(trifluoromethyl)-1,2-dihydropyridine-3-carboxamide] |
| 30 | Cc1ccc2c(c1)S(=O)(=O)c1cc(C)ccc1C2NC(=O)c1cc(C)c(C(F)(F)F)[nH]c1=O [Compound 474, N-(3,6-dimethyl-10,10-dioxido-9H-thioxanthen-9-yl)-5-methyl-2-oxo-6-(trifluoromethyl)-1,2-dihydropyridine-3-carboxamide] |
| 10 | Cc1ccc2c(c1)S(=O)(=O)c1cc(C)ccc1C2NC(=O)c1ccc(C(F)(F)F)[nH]c1=O [Compound 475, N-(3,6-dimethyl-10,10-dioxido-9H-thioxanthen-9-yl)-2-oxo-6-(trifluoromethyl)-1,2-dihydropyridine-3-carboxamide] |
| > 10000 | Cc1ccc2c(c1)S(=O)(=O)c1cccc(C)c1C2NC(=O)c1ccc(C(F)(F)F)[nH]c1=O (stereo not shown) [Compound 476, N-(1,6-dimethyl-10,10-dioxido-9H-thioxanthen-9-yl)-2-oxo-6-(trifluoromethyl)-1,2-dihydropyridine-3-carboxamide] |
| > 10000 | O=C(NC1CCOc2cccnc21)c1ccc(C(F)(F)F)[nH]c1=O (stereo not shown) [Compound 477, N-(3,4-dihydro-2H-pyrano[3,2-b]pyridin-4-yl)-2-oxo-6-(trifluoromethyl)-1,2-dihydropyridine-3-carboxamide] |
| 1410 | O=C(NC(c1ccccc1)c1cccc(CC(F)(F)F)c1)c1ccc(C(F)(F)F)[nH]c1=O (stereo not shown) [Compound 478, 2-oxo-N-(phenyl(3-(2,2,2-trifluoroethyl)phenyl)methyl)-6-(trifluoromethyl)-1,2-dihydropyridine-3-carboxamide] |
| 260 | O=C(NC1c2ccccc2Oc2ccc(CC(F)(F)F)cc21)c1ccc(C(F)(F)F)[nH]c1=O (stereo not shown) [Compound 479, 2-oxo-N-(2-(2,2,2-trifluoroethyl)-9H-xanthen-9-yl)-6-(trifluoromethyl)-1,2-dihydropyridine-3-carboxamide] |
| 400 | O=C(NC1c2ccccc2Sc2ccc(CC(F)(F)F)cc21)c1ccc(C(F)(F)F)[nH]c1=O (stereo not shown) [Compound 480, 2-oxo-N-(2-(2,2,2-trifluoroethyl)-9H-thioxanthen-9-yl)-6-(trifluoromethyl)-1,2-dihydropyridine-3-carboxamide] |
| 1420 | O=C(NC1c2ccccc2Oc2ccc(C3CNC3)cc21)c1ccc(C(F)(F)F)[nH]c1=O (stereo not shown) [Compound 481, N-(2-(azetidin-3-yl)-9H-xanthen-9-yl)-2-oxo-6-(trifluoromethyl)-1,2-dihydropyridine-3-carboxamide] |
| 2390 | CN1CC(c2ccc3c(c2)C(NC(=O)c2ccc(C(F)(F)F)[nH]c2=O)c2ccccc2O3)C1 (stereo not shown) [Compound 482, N-(2-(1-methylazetidin-3-yl)-9H-xanthen-9-yl)-2-oxo-6-(trifluoromethyl)-1,2-dihydropyridine-3-carboxamide] |
| 1110 | O=C(NC1c2ccccc2Oc2cc(C3CNC3)ccc21)c1ccc(C(F)(F)F)[nH]c1=O (stereo not shown) [Compound 483, N-(3-(azetidin-3-yl)-9H-xanthen-9-yl)-2-oxo-6-(trifluoromethyl)-1,2-dihydropyridine-3-carboxamide] |
